Test results taken from patent US20240158446A1, “CYCLIC COMPOUND HAVING SELECTIVE INHIBITORY ACTION ON KRAS OVER HRAS AND NRAS” (CHUGAI SEIYAKU KABUSHIKI KAISHA, priority 2021, published 2024).
Like-named read-outs stand apart in the source and are kept apart here. *1 amine or outer side, *2 acyl side, *3 side chain or, on linkers, in order; H or OH if unused. Where a SMILES comes first, the peptide text is derived from it. Bridges are numbered along the chain shown (N, C = ends). [ ]: non-standard residue; d: D form. The star is where a group is joined. hPhe(3-Cl-4-CF3) = N[C@@H](CCc1ccc(C(F)(F)F)c(Cl)c1)C(=O)O; X23 = C=CCCN([C@@H](Cc1ccc(C(F)(F)F)cc1)C(=O)[*:2])[*:1]; NMeGly(cPent) = CN[C@H](C(=O)O)C1CCCC1; NMeD = CN[C@@H](CC(=O)O)C(=O)O; NMeL = CN[C@@H](CC(C)C)C(=O)O; Morpholide = C1CN(*)CCO1; NMeA = CN[C@@H](C)C(=O)O; Ac5c = NC1(C(=O)O)CCCC1; Aze = O=C(O)[C@@H]1CCN1; Sar = CNCC(=O)O

What was measured:
[1] = target: GDP-bound NRAS wild-type protein (Homo sapiens, UniProt P01111); assay: Binding to NRAS by surface plasmon resonance (SPR), Single Cycle Kinetics; conditions: SPR, GDP-bound NRAS wild-type protein vs GDP-bound KRAS wild-type protein
Chain of GDP-bound NRAS wild-type protein (P01111 whole entry): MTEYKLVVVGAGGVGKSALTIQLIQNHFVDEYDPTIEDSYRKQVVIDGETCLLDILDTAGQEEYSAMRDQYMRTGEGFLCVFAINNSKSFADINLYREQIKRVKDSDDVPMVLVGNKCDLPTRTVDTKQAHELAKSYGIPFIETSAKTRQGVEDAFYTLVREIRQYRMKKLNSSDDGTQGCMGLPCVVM

[2] = target: GDP-bound KRAS wild-type protein (Homo sapiens, UniProt P01116); assay: Binding to KRAS by surface plasmon resonance (SPR), Single Cycle Kinetics; conditions: GDP-bound KRAS wild-type protein, read-out: KRAS KD
Chain of GDP-bound KRAS wild-type protein (P01116 whole entry): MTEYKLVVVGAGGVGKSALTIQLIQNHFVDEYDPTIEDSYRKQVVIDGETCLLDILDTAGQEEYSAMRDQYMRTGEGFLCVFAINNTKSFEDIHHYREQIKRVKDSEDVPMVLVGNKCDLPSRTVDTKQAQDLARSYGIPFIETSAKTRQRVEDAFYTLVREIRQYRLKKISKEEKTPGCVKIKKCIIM

[3] = target: GDP-bound HRAS wild-type protein (Homo sapiens, UniProt P01112); assay: Binding to HRAS by surface plasmon resonance (SPR), Single Cycle Kinetics; conditions: SPR, GDP-bound HRAS wild-type protein vs GDP-bound KRAS wild-type protein
Chain of GDP-bound HRAS wild-type protein (P01112 whole entry): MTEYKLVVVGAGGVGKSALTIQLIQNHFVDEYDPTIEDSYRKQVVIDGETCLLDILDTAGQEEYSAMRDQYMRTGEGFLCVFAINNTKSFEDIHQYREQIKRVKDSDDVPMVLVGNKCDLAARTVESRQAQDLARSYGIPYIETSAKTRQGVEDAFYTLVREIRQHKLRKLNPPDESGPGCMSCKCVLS

[4] = SPR Single Cycle Kinetics, 1:1 binding model

SMILES | NRAS/KRAS (ratio of KD value for NRAS to KD value for KRAS) [1] | Kd ([2]; SPR, Single Cycle Kinetics) | HRAS/KRAS (ratio of KD value for HRAS to KD value for KRAS) [3] | Kd [2, 4] | also measured
C=CCN1CC(=O)N(C)[C@H]2C/C=C\CCN(C2=O)[C@@H](Cc2ccc(C)cc2)C(=O)N(C)CC(=O)N[C@@H](CCc2cc(F)c(C(F)(F)F)c(F)c2)C(=O)N2C[C@H](OCC)C[C@H]2C(=O)NC2(CC(C)(C)C2)C(=O)N(C)[C@@H](C2CCCC2)C(=O)N(C)[C@H](C(=O)N(C)C)CC(=O)N(C)[C@@H](CCC)C(=O)N[C@@H]([C@@H](C)CC)C1=O [PP2094] | A (a compound having 10 or more and less than 20 is denoted as A) | 0.29 nM | A (a compound having 10 or more and less than 20 is denoted as A) |  | 
CCO[C@@H]1C[C@H]2C(=O)NC3(CCC3)C(=O)N(C)[C@@H](C3CCCC3)C(=O)N(C)[C@H](C(=O)N3CCOCC3)CC(=O)N(C)[C@@H](CC3CC3)C(=O)N[C@@H]([C@@H](C)CC)C(=O)N(C)CC(=O)N(C)[C@H]3C/C=C\CCN(C3=O)[C@@H](Cc3ccc(F)cc3)C(=O)N(C)CC(=O)N[C@@H](CCc3cc(F)c(C(F)(F)F)c(F)c3)C(=O)N2C1 [PP1496] |  |  |  |  | NRAS/KRAS (ratio of KD value for NRAS to KD value for KRAS) ([1]; KD ratio class): A (a compound having 10 or more and less than 20 is denoted as A); Kd ([2]; SPR, Single Cycle Kinetics, 1:1 binding model): 0.26 nM; HRAS/KRAS (ratio of KD value for HRAS to KD value for KRAS) ([3]; KD ratio class): B (a compound having 3 or more and less than 10 is denoted as B)
CCO[C@@H]1C[C@H]2C(=O)NC3(CCC3)C(=O)N(C)[C@@H](C(CC)CC)C(=O)N(C)[C@H](C(=O)N3CCOCC3)CC(=O)N(C)[C@@H](CC(C)C)C(=O)N[C@@H]([C@@H](C)CC)C(=O)N(C)CC(=O)N(C)[C@H]3CCCCN(C3=O)[C@@H](Cc3ccc(C(F)(F)F)cc3)C(=O)N(C)CC(=O)N[C@@H](CCc3cc(F)c(C(F)(F)F)c(F)c3)C(=O)N2C1 [PP0811] | B (a compound having 3 or more and less than 10 is denoted as B) | 0.083 nM | B (a compound having 3 or more and less than 10 is denoted as B) |  | 
CC[C@H](C)[C@@H]1NC(=O)[C@H](C)N(C)C(=O)C[C@@H](C(=O)N2CCOCC2)N(C)C(=O)[C@H](C2CCCC2)N(C)C(=O)C2(CCCC2)NC(=O)[C@@H]2CCCN2C(=O)[C@H](CCc2cc(F)c(C(F)(F)F)c(F)c2)NC(=O)CN(C)C(=O)[C@H](Cc2ccc(C(F)(F)F)cc2)N2CCCC[C@@H](C2=O)N(C)C(=O)CN(C)C1=O [PP0549] |  |  |  | 0.062 nM | NRAS/KRAS (ratio of KD value with respect to NRAS to KD value with respect to KRAS) [1]: C (A compound having a KD ratio of 0.1 or more and less than 3 is denoted as C); HRAS/KRAS (ratio of KD value with respect to HRAS to KD value with respect to KRAS) [3]: B (a compound having 3 or more and less than 10 is denoted as B)
CCCN1CC(=O)N(C)[C@H]2C/C=C\CCN(C2=O)[C@@H](Cc2ccc(C)cc2)C(=O)N(C)CC(=O)N[C@@H](CCc2ccc(C(F)(F)F)c(OC)c2)C(=O)N2C[C@H](OCC)C[C@H]2C(=O)NC2(CC(C)(C)C2)C(=O)N(C)[C@@H](C2CCCC2)C(=O)N(C)[C@H](C(=O)N(C)C)CC(=O)N(C)[C@@H](CC)C(=O)N[C@@H]([C@@H](C)CC)C1=O [PP2096] | A (a compound having 10 or more and less than 20 is denoted as A) | 0.42 nM | A (a compound having 10 or more and less than 20 is denoted as A) |  | 
C=CCCN1C(=O)[C@@H]2CCN2C(=O)[C@H](C)N(C)C(=O)[C@H]([C@@H](C)CC)NC(=O)[C@H](CC(C)C)N(C)C(=O)C[C@@H](C(=O)N2CCOCC2)N(C)C(=O)[C@H](C2CCCC2)N(C)C(=O)C2(CCCC2)NC(=O)[C@@H]2CCCN2C(=O)[C@H](CCc2ccc(C(F)(F)F)c(Cl)c2)NC(=O)CN(C)C(=O)[C@@H]1Cc1ccc(C(F)(F)F)cc1 [PP0115] ([NMeL]I[NMeA][Aze][X23][Sar][hPhe(3-Cl-4-CF3)]P[Ac5c][NMeGly(cPent)][NMeD]-Morpholide; lactam N-11) | C (A compound having a KD ratio of 0.1 or more and less than 3 is denoted as C) |  | C (A compound having a KD ratio of 0.1 or more and less than 3 is denoted as C) | 0.21 nM | 
CCC[C@H]1C(=O)N[C@@H]([C@@H](C)CC)C(=O)N(C)CC(=O)N(C)[C@H]2C/C=C\CCN(C2=O)[C@@H](CC2CCC(F)(F)CC2)C(=O)N(C)CC(=O)N[C@@H](CCc2ccc(C(F)(F)F)c(OC)c2)C(=O)N2C[C@H](OCC)C[C@H]2C(=O)N(C)C2(CCC2)C(=O)N(C)[C@@H](C2CCCC2)C(=O)N(C)[C@H](C(=O)N(C)C)CC(=O)N1C [PP2348] | A (a compound having 10 or more and less than 20 is denoted as A) | 0.34 nM | A (a compound having 10 or more and less than 20 is denoted as A) |  | 
CCO[C@@H]1C[C@H]2C(=O)NC3(CCC3)C(=O)N(C)[C@@H](C3CCCC3)C(=O)N(C)[C@H](C(=O)N(C)C)CC(=O)N(C)[C@@H](C)C(=O)N[C@@H]([C@H](C)CC)C(=O)N(C)CC(=O)N(C)[C@H]3CCCCN(C3=O)[C@@H](Cc3ccc(C(F)(F)F)cc3)C(=O)N(C)CC(=O)N[C@@H](CCc3cc(F)c(C(F)(F)F)c(F)c3)C(=O)N2C1 [PP0730] |  |  |  | 0.094 nM | NRAS/KRAS (ratio of KD value with respect to NRAS to KD value with respect to KRAS) [1]: C (A compound having a KD ratio of 0.1 or more and less than 3 is denoted as C); HRAS/KRAS (ratio of KD value with respect to HRAS to KD value with respect to KRAS) [3]: C (A compound having a KD ratio of 0.1 or more and less than 3 is denoted as C)
CCO[C@@H]1C[C@H]2C(=O)NC3(CCC3)C(=O)N(C)[C@@H](C3CCCC3)C(=O)N(C)[C@H](C(=O)N(C)C)CC(=O)N(C)[C@@H](C(C)C)C(=O)N[C@@H]([C@@H](C)CC)C(=O)N(C)CC(=O)N(C)[C@H]3C/C=C\CCN(C3=O)[C@@H](Cc3ccc(C(F)(F)F)cc3)C(=O)N(C)CC(=O)N[C@@H](CCc3cc(F)c(C(F)(F)F)c(F)c3)C(=O)N2C1 [PP1109, (2S,8S,12R,14S,20S,23S,27S,30S,36S,38Z)-20-cyclopentyl-8-[2-[3,5-difluoro-4-(trifluoromethyl)phenyl]ethyl]-12-ethoxy-27-isopropyl-N,N,4,19,22,26,32,35-octamethyl-30-[(1S)-1-methylpropyl]-3,6,9,15,18,21,25,28,31,34,42-undecaoxo-2-[[4-(trifluoromethyl)phenyl]methyl]spiro[1,4,7,10,16,19,22,26,29,32,35-undecazatricyclo[34.5.1.0^10,14]dotetracont-38-ene-17,1′-cyclobutane]-23-carboxamide] | A (a compound having 10 or more and less than 20 is denoted as A) | 0.12 nM | B (a compound having 3 or more and less than 10 is denoted as B) |  | 
CC[C@H](C)[C@@H]1NC(=O)[C@H](CC(C)C)N(C)C(=O)C[C@@H](C(=O)N2CCOCC2)N(C)C(=O)[C@H](C2CCCC2)N(C)C(=O)C2(CCCC2)NC(=O)[C@@H]2CCCN2C(=O)[C@H](CCc2ccc(C(F)(F)F)c(Cl)c2)NC(=O)CN(C)C(=O)[C@H](Cc2ccc(OC(F)(F)F)cc2)N2CCCCC[C@@H](C2=O)N(C)C(=O)CN(C)C1=O [PP0615] |  |  |  | 6.2 nM | NRAS/KRAS (ratio of KD value with respect to NRAS to KD value with respect to KRAS) [1]: B (a compound having 3 or more and less than 10 is denoted as B); HRAS/KRAS (ratio of KD value with respect to HRAS to KD value with respect to KRAS) [3]: B (a compound having 3 or more and less than 10 is denoted as B)
CCO[C@@H]1C[C@H]2C(=O)NC3(CC(C)(C)C3)C(=O)N(C)[C@@H](C(CC)CC)C(=O)N(C)[C@H](C(=O)N(C)C)CC(=O)N(C)[C@@H](CC)C(=O)N[C@@H]([C@@H](C)CC)C(=O)N(C)CC(=O)N(C)[C@H]3C/C=C\CCN(C3=O)[C@@H](Cc3ccc(C(F)(F)F)cc3)C(=O)N(C)CC(=O)N[C@@H](CCc3ccc(C(F)(F)F)c(OC)c3)C(=O)N2C1 [PP2066] | A (a compound having 10 or more and less than 20 is denoted as A) | 0.25 nM | B (a compound having 3 or more and less than 10 is denoted as B) |  | 
CC[C@H](C)[C@@H]1NC(=O)[C@H](CC(C)C)N(C)C(=O)C[C@@H](C(=O)N2CCOCC2)N(C)C(=O)[C@H](C2CCCC2)N(C)C(=O)C2(CCCC2)NC(=O)[C@@H]2CCCN2C(=O)[C@H](CCc2ccc(C(F)(F)F)c(Cl)c2)NC(=O)CN(C)C(=O)[C@H](Cc2ccc(C)cc2)N2CCCCC[C@@H](C2=O)N(C)C(=O)CN(C)C1=O [PP0317] | B (a compound having 3 or more and less than 10 is denoted as B) |  | B (a compound having 3 or more and less than 10 is denoted as B) | 0.86 nM | 
CCCO[C@@H]1CCN2C(=O)[C@H](CCc3cc(F)c(C(F)(F)F)c(F)c3)NC(=O)CN(C)C(=O)[C@H](Cc3ccc(C(F)(F)F)cc3)N3CCCC[C@@H](C3=O)N(C)C(=O)CN(C)C(=O)[C@H]([C@@H](C)CC)NC(=O)[C@H](CC(C)C)N(C)C(=O)C[C@@H](C(=O)N3CCOCC3)N(C)C(=O)[C@H](C3CCCC3)N(C)C(=O)C3(CCC3)NC(=O)[C@H]12 [PP1080] | B (a compound having 3 or more and less than 10 is denoted as B) | 0.24 nM | B (a compound having 3 or more and less than 10 is denoted as B) |  | 
